In patent publication US5670510A, “Pyridyl substituted spirodienes for the treatment of inflammation” (G. D. Searle & Co., priority 1996, dated 1997):

How the values were obtained:
[1] = literature: Futaki et al; cited from earlier work
[2] = test system: cyclooxygenase II; details: literature: Meade et al; Futaki et al; cited from earlier work
[3] = test system: carrageenan-induced hyperalgesic foot withdrawal; assay: Rat Carrageenan-induced Analgesia Test; type: in vivo, Male Sprague-Dawley rats; details: oral, inhibition of hyperalgesic foot withdrawal 3 h after carrageenan
Procedure: Rat Carrageenan-induced Analgesia Test
The rat carrageenan analgesia test was performed with materials, reagents and procedures essentially as described by Hargreaves, et al. (Pain, 32, 77 (1988)). Male Sprague-Dawley rats were treated as previously described for the Carrageenan Foot Pad Edema test. Three hours after the injection of the carrageenan, the rats were placed in a special plexiglass container with a transparent floor having a high intensity lamp as a radiant heat source, positionable under the floor. After an initial twenty minute period, thermal stimulation was begun on either the injected foot or on the contralateral uninjected foot. A photoelectric cell turned off the lamp and timer when light was interrupted by paw withdrawal. The time until the rat withdraws its foot was then measured. The withdrawal latency in seconds was determined for the control and drug-treated groups, and percent inhibition of the hyperalgesic foot withdrawal determined.

[4] = test system: carrageenan-induced foot edema; assay: Rat Carrageenan Foot Pad Edema Test; type: in vivo, Male Sprague-Dawley rats; details: oral, 3 h after carrageenan injection
Procedure: Rat Carrageenan Foot Pad Edema Test
The carrageenan foot edema test was performed with materials, reagents and procedures essentially as described by Winter, et al. (Proc. Soc. Exp. Biol. Med., 11, 544 (1962)). Male Sprague-Dawley rats were selected in each group so that the average body weight was as close as possible. Rats were fasted with free access to water for over sixteen hours prior to the test. The rats were dosed orally (1 mL) with compounds suspended in vehicle containing 0.5% methylcellulose and 0.025% surfactant, or with vehicle alone. One hour later a subplantar injection of 0.1 mL of 1% solution of carrageenan/sterile 0.9% saline was administered and the volume of the injected foot was measured with a displacement plethysmometer connected to a pressure transducer with a digital indicator. Three hours after the injection of the carrageenan, the volume of the foot was again measured. The average foot swelling in a group of drug-treated animals was compared with that of a group of placebo-treated animals and the percentage inhibition of edema was determined (Ottertess and Bliven, Laboratory Models for Testing NSAIDs, in Non-steroidal Anti-inflammatory Drugs, (J. Lombardino, ed. 1985)).

[5] = test system: COX I; details: read-out: COX I ID50; arachidonic acid 10 μM; pH 8.0; pre-incubated 10-20 minutes
Procedure: Recombinant baculoviruses were isolated by transfecting 4 μg of baculovirus transfer vector DNA into SF9 insect cells ([…]) along with 200 ng of linearized baculovirus plasmid DNA by the calcium phosphate method. […] Exp. Station Bull. 1555 (1987). Recombinant viruses were purified by three rounds of plaque purification and high titer (10E7-10E8 pfu/ml) stocks of virus were prepared. For large scale production, SF9 insect cells were infected in 10 liter fermentors (0.5×10^6 /ml) with the recombinant baculovirus stock such that the multiplicity of infection was 0.1. After 72 hours the cells were centrifuged and the cell pellet homogenized in Tris/Sucrose (50 mM: 25%, pH 8.0) containing 1% 3-[(3-cholamidopropyl)dimethylammonio]-1-propanesulfonate (CHAPS). The homogenate was centrifuged at 10,000×G for 30 minutes, and the resultant supernatant was stored at -80° C. before being assayed for COX activity.
COX activity was assayed as PGE2 formed/μg protein/time using an ELISA to detect the prostaglandin released. CHAPS-solubilized insect cell membranes containing the appropriate COX enzyme were incubated in a potassium phosphate buffer (50 mM, pH 8.0) containing epinephrine, phenol, and heme with the addition of arachidonic acid (10 μM). […] The PGE2 formed was measured by standard ELISA technology (Cayman Chemical).

SMILES | gastric side effects [1] | inhibition of COX II enzyme [2] | ANALGESIA % Inhibition @ 10 mg/kg body weight [3] | RAT PAW EDEMA % Inhibition @ 30 mg/kg body weight [4] | IC50 [5]
CS(=O)(=O)Nc1ccc([N+](=O)[O-])cc1OC1CCCCC1 [N-(2-cyclohexyloxy-4-nitrophenyl)methanesulfonamide] | lacks gastric side effects | inhibits cyclooxygenase II |  |  | 
COc1ccc2cc(CC(=O)O)ccc2c1 [6-methoxy-2-napthylacetic acid] |  | selectively inhibit the COX II enzyme |  |  | 
CS(=O)(=O)c1ccc(C2=CC3(C=C2c2ccc(F)cc2)CC3)cc1 [Example 1, 5-(4-Fluorophenyl)-6-[4-(methylsulfonyl)phenyl]spiro[2.4]hepta-4,6-diene] |  |  | 94% | 49% | 1.3 µM
